Source: article PMC11940079, “Identification of a Possible Endocannabinoid-Mediated Mechanism of Action of Cetylated Fatty Acids” (Biomolecules, 2025)

Legend:
[1] = biological target: T1, human monoacylglycerol lipase (hMAGL) (Homo sapiens, UniProt Q99685); assay: spectrophotometric assay with 4-nitrophenyl acetate, recombinant human MAGL, dose-response; type: biochemical
T1 construct: gene MGLL
T1 sequence (Q99685 1-303): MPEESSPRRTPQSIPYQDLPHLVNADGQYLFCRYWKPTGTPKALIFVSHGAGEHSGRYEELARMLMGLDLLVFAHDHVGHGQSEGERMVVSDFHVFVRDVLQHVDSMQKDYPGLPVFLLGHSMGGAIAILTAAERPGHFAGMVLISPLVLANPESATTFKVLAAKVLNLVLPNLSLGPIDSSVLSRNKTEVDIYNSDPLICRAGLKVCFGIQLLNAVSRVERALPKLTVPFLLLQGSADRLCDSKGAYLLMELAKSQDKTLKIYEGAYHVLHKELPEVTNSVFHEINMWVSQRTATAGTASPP

[2] = biological target: T1, human monoacylglycerol lipase (hMAGL); assay: spectrophotometric assay with 4-nitrophenyl acetate, single-point % inhibition at […]; type: biochemical

Structure (SMILES)	IC50 [1]	spectrophotometric assay with 4-nitrophenyl acetate, single-point % inhibition a [2]
CCCCCCCCCCCCCCCCOC(=O)CCCCCCCCC [3b, Hexadecyl decanoate]	36 ± 4 µM	–
CCCCCC/C=C\CCCCCCCC(=O)OCCCCCCCCCCCCCCCC [3h, Hexadecyl (Z)-hexadec-9-enoate]	–	its close analogue 3h (cetyl palmitoleate), possessing the double bond at the same distance from the ester group as 3g, proved to be equally active
CCCCCCCC/C=C\CCCCCCCC(=O)OCCCCCCCCCCCCCCCC [3i, Hexadecyl oleate]	–	their longer analogue 3i (cetyl oleate) displayed slightly weaker potency in the same test
